EPA's ToxValDB 9.5 (doi:10.2903/j.efsa.2016.4420)
Values after ≈ are worked out from the molar mass of the structure shown.

Assays:
[1] = chronic; duration: 128 days; other
Apis mellifera = settings: acute, mortality
Bibionidae = settings: chronic/long-term
Canidae = settings: chronic; duration: 2 years; Dog Other; histopathology: nonneoplastic
Danio rerio = settings: chronic
Daphnia magna = settings: chronic/long-term; duration: 21 days; reproduction
Folsomia candida = settings: chronic/long-term; mortality
Oncorhynchus mykiss = settings: acute; duration: 96 hours; mortality
Oryctolagus sp. = settings: developmental; development
Pimephales promelas = settings: chronic/long-term; reproduction
Tagia sp. = settings: chronic/long-term; growth
Aphidius rhopalosiphi = test: LR50; higher = less toxic; settings: not reported; mortality

What does the source list for `CCC(CC)Nc1c([N+](=O)[O-])cc(C)c(C)c1[N+](=O)[O-]` [Pendimethalin]?
NOEC [1]: 0.00023 mg/L; LD50 (Anas platyrhynchos; acute, oral, unspecified, mortality): 1420 mg/kg-day; NOEL (Anas platyrhynchos; reproductive): 17.5 mg/kg-day; LD50 (Apis mellifera; dermal): > 100 µg/piece; LD50 (Apis mellifera; oral, unspecified): > 101 µg/piece; NOEC (Bibionidae; duration: 28 days): 227 mg/kg; NOEC (Bibionidae; duration: 30 days): 0.082 mg/L; NOAEL (Canidae): 12.5 mg/kg-day; NOEC (Danio rerio): 0.032 mg/L; NOEC (Daphnia magna): 0.0145 mg/L; NOEC (Folsomia candida): 193 mg/kg; LC50 (Oncorhynchus mykiss): 0.196 µg/mL (≈ 0.697 µM); NOAEL (Oryctolagus sp.): 30 mg/kg-day; NOEC (Pimephales promelas): 0.0063 mg/L; LD50 (Rattus norvegicus; acute, mortality): 3930 mg/kg-day; NOAEL (Rattus norvegicus; reproduction developmental, body weight): 30 mg/kg-day; NOEC (Tagia sp.): 33.5 mg/kg; LR50 (Aphidius rhopalosiphi): 1200 g/ha
